Assays:
[1] = biological target: T1, hCB2-HEK293 membranes (Homo sapiens, UniProt P34972); experiment: CB-2 membrane binding assay ([3H] CP 55,940 displacement); conditions: mean where tested more than once
T1 construct: expressed in transfected cells; host or cells: HEK293

[2] = biological target: hCB1-CHO-K1 membranes (Homo sapiens, UniProt P21554); experiment: CB-1 membrane binding assay ([3H] CP 55,940 displacement)
Procedure: Into Greiner V bottom polypropylene plates, hCB1-CHO-K1 membranes (2 μg/well final concentration) in assay buffer (50 mM Tris-HCl pH 7.4, 5 mM MgCl2 and 0.5 mg/ml (0.05%) Ultra fatty acid free BSA) were dispensed. Membranes were purchased from Perkin Elmer. Test compounds were then added to each well and then [^3H] CP 55, 940 (0.4 nM final well concentration) in assay buffer (50 mM Tris-HCl pH 7.4, 5 mM MgCl2 and 0.5 mg/ml (0.05%) Ultra fatty acid free BSA) was added. Samples were mixed and incubated for 90 min at 30° C. in the Greiner V Bottom Polypropylene plate. After incubation, assay reagents were transferred to a blocked 384 well polypropylene filter plates. The binding reaction was stopped by filtration and washed seven times with ice cold rinse buffer. Filter plates were then dried overnight at room temperature. The next day, plate bottoms were sealed with plate tape and 15 μl MicroScint 20 was added to each well. Plates were incubated for 2 h and radioactivity was measured by Topcount.
Total Binding levels were achieved by combining membrane, DMSO, and [^3H]
Non-Specific Binding (NSB) levels were achieved by combining membrane, 10 μM final concentration WIN-55,212 (also known as (R)-(+)-[2,3-Dihydro-5-methyl-3[(4-morpholinyl)methyl]pyrrolo[1,2,3-de]-1,4-benzoxazinyl]-(1-naphthalenyl)methanone mesylate, Tocris Biosciences Cat#1038), and [^3H]
Non-specific binding (NSB=10 μM WIN-55,212+Membrane+[^3H] CP-55,940) was used as the negative control, while the Total Binding (TB=DMSO+Membrane+[^3H] CP-55,940) was used as the positive control.
IC50 data was calculated using raw CPM values. Curves were fitted individually from singlet 11 point dosing curves+1% DMSO Control. IC50 values were fit appropriately and calculated using the following equation:
Vmin, CPM at maximum inhibition; Vo, CPM at zero inhibition; IC50, inhibitor concentration at 50% inhibition; h, Hill coefficient.

[3] = biological target: T2, Human CB1R (Cannabinoid receptor 1) (Homo sapiens, UniProt P21554); experiment: CB-1 in vitro cAMP (HTRF) functional assay; type: cell-based; conditions: mean where tested more than once
T2 construct: host or cells: HEK-293
T2 sequence (P21554 whole entry): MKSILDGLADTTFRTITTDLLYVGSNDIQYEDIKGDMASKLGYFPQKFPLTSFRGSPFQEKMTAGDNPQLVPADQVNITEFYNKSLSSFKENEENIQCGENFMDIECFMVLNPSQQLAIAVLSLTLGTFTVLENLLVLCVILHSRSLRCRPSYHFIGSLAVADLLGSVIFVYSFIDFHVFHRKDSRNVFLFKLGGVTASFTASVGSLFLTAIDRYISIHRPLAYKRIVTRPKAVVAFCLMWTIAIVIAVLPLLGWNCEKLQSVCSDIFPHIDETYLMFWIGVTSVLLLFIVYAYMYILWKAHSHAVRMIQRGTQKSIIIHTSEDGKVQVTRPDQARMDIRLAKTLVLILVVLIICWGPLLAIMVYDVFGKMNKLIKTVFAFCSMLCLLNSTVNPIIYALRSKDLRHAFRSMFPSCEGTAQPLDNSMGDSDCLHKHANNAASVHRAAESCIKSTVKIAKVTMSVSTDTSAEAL
Source text: (§1) CB1 and CB2 receptors are Gi-coupled GPCR. Activation of CB1 and CB2 receptors results in a decrease in cAMP production. An inverse agonist of the CB1 or CB2 receptor results in the opposite effect, an increase of cAMP production. The principle of this assay is based on HTRF® technology (Homogeneous Time-Resolved Fluorescence). The method is a competitive immunoassay between native cAMP produced by cells and the cAMP labeled with the fluorophore d2. The tracer binding is quantified by a Mab anti-cAMP labeled with Eu3+ TBP-NHS Cryptate (supplied as part of the assay kit). The specific signal (i.e. energy transfer) is inversely proportional to the concentration of cAMP in the standard or sample.
(§2) Human CB1R (Cannabinoid receptor 1) was stably transfected in HEK-293 cells (DiscoveRx, cat: 93-0200C1). Human CB2R (Cannabinoid receptor 2) was stably transfected in HEK-293 cells (DiscoveRx, cat: 93-0201C1). Cell cultures were maintained in media: DMEM (Invitrogen Cat#12430-054) supplemented with 10% HI FBS (Invitrogen Cat#16140-071), 1% L-glutamine (Invitrogen Cat#25030-081), 0.2 mg/ml Hygromycin B (Invitrogen Cat#10687-010), 600 μg/mL G418 (Invitrogen Cat#10131-035), and 1× Penn/Strep (Invitrogen 15140-122). After cell expansion, aliquots were cryo-stored in media containing 5% DMSO (Pierce Cat#20684).
(§3) One day prior to experiments media was warmed to 37° C. and the cryo-stored cells were thawed in a 37° C. water bath. The cells were then added to media (10× volume) and the mixture was centrifuged at 1000 RPM for 5 min. The supernate was removed and the cells were re-suspended in media. A sample of the cell suspension was evaluated on a Cedex XS automated cell counter (Innovatis Systems) to determine viable cells/ml. Additional media was added to the cells to achieve a final cell density of 4E5 cells/mL. The cells were then plated into 384 well PDL white solid bottom plates (Greiner, Cat#781945) at 20 μL per well using a Multidrop (Thermo Scientific). Cells were removed from Row P (location of cAMP standards). Two columns of cells were plated into a clear bottom 384 well PDL coated plate (Greiner, Cat#781944) to view confluence the day of the assay. The cell plates were lidded and stored for 15 minutes in a hood, then transferred to an incubator (37° C., 5% CO2, 95% humidity) overnight.
(§4) DMSO was added to all wells of 384 well V bottom polystyrene plate (Greiner, Cat#781280) except to columns 1 and 13, rows O and P and wells M13-M23 and N13-N23. Test compounds (60 μL, 10 mM) were added to Column 1 and 13 (A1 through N1 and A13 through L13). Test compounds were serially diluted 1/3 by transferring and mixing 20 μl sample with 40 μL DMSO.
(§5) DMSO (40 μL) was added to wells of 384 well V bottom polystyrene plate: O2 through O11, M14 through M23, N14 through N23, and O14 through O23. AM630 (also known as [6-iodo-2-methyl-1-[2-(4-morpholinyl)ethyl]-1H-indol-3-yl](4-methoxyphenyl)-methanone, Cayman Chemical, Cat#10006974) (60 μL, 10 mM) was added to O1; and 1-(2,4-dichlorophenyl)-7-[(4-fluorophenyl)methylene]-4,5,6,7-tetrahydro-N-1-piperidinyl-1H-indazole-3-carboxamide (60 μL, 10 mM) was added to N13. The control was serially diluted 1/3 by transferring and mixing 20 μl sample with 40 μL DMSO. This process resulted 11 doses per control, 10 mM to […].
(§6) Cells plated the day prior to the assay in clear bottom plates were viewed on an inverse microscope to ensure confluency in the range of 60-75%. […]

[4] = biological target: T3, Human CB2R (Cannabinoid receptor 2) (Homo sapiens, UniProt P34972); experiment: CB-2 in vitro cAMP (HTRF) functional assay; type: cell-based; conditions: mean where tested more than once
T3 construct: host or cells: HEK-293
T3 sequence (P34972 whole entry): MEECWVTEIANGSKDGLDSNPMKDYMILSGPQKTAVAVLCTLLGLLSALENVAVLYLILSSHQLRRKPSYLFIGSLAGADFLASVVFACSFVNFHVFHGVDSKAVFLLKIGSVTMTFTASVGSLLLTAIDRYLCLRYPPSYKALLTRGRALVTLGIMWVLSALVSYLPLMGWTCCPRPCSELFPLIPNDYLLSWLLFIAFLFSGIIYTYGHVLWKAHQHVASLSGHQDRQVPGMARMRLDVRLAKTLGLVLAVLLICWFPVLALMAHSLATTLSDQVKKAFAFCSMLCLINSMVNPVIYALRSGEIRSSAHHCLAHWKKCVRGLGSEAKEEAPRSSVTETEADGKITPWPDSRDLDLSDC
Source text: as §1, §2, §3, §4, §5, §6

[5] = Chronic DIO mouse: plasma and brain concentrations; type: in vivo; conditions: for Brain concentration (Std Dev): DIO mice, second study
Procedure: Male 14-20-week old diet-induced obese mice were ordered from Taconic. Mice were started on a 60% fat diet (D12492, Research Diets, New Brunswick, N.J.) at 6 weeks of age. Mice were single-housed.
(§7) Test compounds were formulated in 10% PEG400 and 10% solutol. Test compounds were administered by oral gavage (5 ml kg^−1).
The test compound was formulated in 10% PEG400 and 10% solutol. DIO mice received vehicle, test compound (@1, 3 and 10 mg/kg) daily for 26 days. At the end of the experiment, the mice were euthanized and blood and tissues were collected.
Compound #44 was tested according to the procedure as described above, with results as listed in Table BIO-4A through Table BIO4-G, below.
In a second study, Compound #44 was tested according to the procedure as described above, with results as listed in Tables BIO-5A through 5G, below.

[6] = tested on: Male SD rats; experiment: Open field locomotor activity in rats (CNS activity), stereotypic counts; type: in vivo, rat; conditions: 4 hour monitoring, vehicle 3022
Source text: (§8) Male Sprague Dawley rats were ordered from Charles River (225-250 gm upon arrival). They were fed standard chow diet (Purina 5001) and housed 2 per cage. Male C57bl/6j mice were ordered from Charles River at 22-25 g and housed 3 per cage. They were fed standard chow (Purina 5001). All animals were housed in a temperature-controlled room with 12-hour light/dark cycle. Animals were given food and water ad libitum, except as noted.
as §7
Male SD rats were weighed and transferred to the Activity Chambers with access to water. After a 2-hr acclimation period, the rats were dosed with vehicle or test compound (@3 and 10 mg/kg). The Activity Chamber monitoring software program was initiated and automatically recorded rat activity in each chamber for a period of 4 hours. At the end of the 4 hour monitoring period, the software was stopped and the rats were removed from the activity chambers. The rats were anesthetized and blood samples were obtained via retro-orbital puncture to determine plasma concentration of compounds. The rats were immediately euthanized with CO2 and the brains removed, washed with PBS, frozen on dry ice and stored at −80° C. for receptor occupancy (RO) analysis. […]

[7] = Mouse Fast PK/BBB (plasma and brain concentration); type: in vivo, Male C57bl/6j mice; conditions: 1 hr after oral dosing; 30 mg/kg or 20 mg/kg; N=3
Source text: as §8, §7
Male C57bl/6j mice were dosed with test compounds at 30 mg/kg. Plasma was collected via retro-orbital bleeding at 1 hr and 4 hrs after dosing. […] Wet brain weight was recorded before freezing. Brains were homogenized in saline and sent for analysis for determination of concentration of test compound.
Table BIO-3 below present results for representative compounds of the present invention, tested according to the procedure as described above. Each compound was tested in three animals (N=3) and administered PA at 20 mg/kg

Sequence of hCB1-CHO-K1 membranes (P21554 whole entry): as the sequence (P21554 whole entry) above
T1 sequence (P34972 whole entry): as the sequence (P34972 whole entry) above

O=c1cc(/C=C/c2cccc(F)c2)c2cc(C(c3ccc(Cl)cc3)c3ccsc3)ccc2[nH]1 (stereo not shown) [Compound 16, 6-[(4-Chlorophenyl)(thiophen-3-yl)methyl]-4-[(E)-2-(3-fluorophenyl)ethenyl]quinolin-2(1H)-one]
IC50 [1]: > 5000 nM | IC50 [2]: 22 nM

O=c1cc(/C=C/c2ccc(C(F)(F)F)cc2)c2cc(C(c3ccc(Cl)cc3)c3cccs3)ccc2[nH]1 (stereo not shown) [Compound 19, 6-[(4-Chlorophenyl)(thiophen-2-yl)methyl]-4-{(E)-2-[4-(trifluoromethyl)phenyl]ethenyl} quinolin-2(1H)-one]
IC50 [1]: > 5000 nM | IC50 [2]: 15.1 nM

O=c1cc(/C=C/c2ccccc2)c2cc(C(c3ccc(Cl)cc3)c3nccs3)ccc2[nH]1 (stereo not shown) [Compound 25, (E)-6-((4-chlorophenyl)(thiazol-2-yl)methyl)-4-styrylquinolin-2(1H)-one]
IC50 [1]: > 5000 nM | IC50 [2]: 34.6 nM

O=C(O)c1ccc(Nc2cc(=O)[nH]c3ccc(C(c4ccc(Cl)cc4)c4ccc(Cl)cc4)cc23)cc1 [Compound 86, 4-({6-[Bis(4-chlorophenyl)methyl]-2-oxo-1,2-dihydroquinolin-4-yl}amino)benzoic acid]
EC50 [3]: > 10000 nM | EC50 [4]: > 10000 nM

O=c1cc(Nc2ccc(C(F)(F)F)cc2)c2cc(C(c3ccc(Cl)cc3)c3ccc(Cl)cc3)cc(Br)c2[nH]1 [Compound 93]
EC50 [3]: 15 nM | EC50 [4]: > 10000 nM

O=C(O)CCN1CCC(Nc2cc(=O)[nH]c3ccc(C(c4ccc(Cl)cc4)c4ccc(Cl)cc4)cc23)CC1 [Compound 115, 3-[4-({6-[Bis(4-chlorophenyl)methyl]-2-oxo-1,2-dihydroquinolin-4-yl}amino)piperidin-1-yl]propanoic acid]
EC50 [3]: > 10000 nM | EC50 [4]: > 10000 nM

O=C(c1ccc(Nc2cc(=O)[nH]c3ccc(C(c4ccc(Cl)cc4)c4ccc(Cl)cc4)cc23)cc1F)N1CCCC1 [Compound 138]
EC50 [3]: 227 nM | EC50 [4]: 750 nM

OC(c1ccc(Cl)cc1)(c1ccsc1)c1ccc2nccc(/C=C/c3ccccc3)c2c1 (stereo not shown) [Compound 507, (4-Chlorophenyl){4-[(E)-2-phenylethenyl]quinolin-6-yl}thiophen-3-ylmethanol]
IC50 [2]: 223 nM

Clc1ccc(C(c2ccc3nccc(/C=C/c4ccccc4)c3c2)c2cccs2)cc1 (stereo not shown) [Compound 508, 6-[(4-Chlorophenyl)(thiophen-2-yl)methyl]-4-[(E)-2-phenylethenyl]quinoline]
IC50 [2]: 97.3 nM

Clc1ccc(C(c2ccc3nccc(/C=C/c4ccccc4)c3c2)c2nccs2)cc1 (stereo not shown) [Compound 511]
IC50 [1]: > 5000 nM | IC50 [2]: 55.1 nM

CCOC(=O)COc1cc(C(c2ccc(Cl)cc2)c2ccc(Cl)cc2)cc2c(NC3CCN(S(=O)(=O)C(F)(F)F)CC3)ccnc12 [Compound 544]
EC50 [3]: 126 nM | EC50 [4]: 3400 nM

O=C(O)COc1cc(C(c2ccc(Cl)cc2)c2ccc(Cl)cc2)cc2c(NC3CCN(S(=O)(=O)C(F)(F)F)CC3)ccnc12 [Compound 545]
EC50 [3]: 4900 nM

O=c1cc(NC2CCN(S(=O)(=O)C(F)(F)F)CC2)c2cc(C(c3ccc(Cl)cc3)c3nccs3)ccc2[nH]1 (stereo not shown) [Compound #41, 6-((4-chlorophenyl)(thiazol-2-yl)methyl)-4-((1-((trifluoromethyl)sulfonyl)piperidin-4-yl)amino)quinolin-2(1H)-one]
IC50 [1]: > 5000 nM | IC50 [2]: 4.4 nM

O=c1cc(NC2CCN(S(=O)(=O)C(F)(F)F)CC2)c2cc(C(c3ccc(Cl)cc3)c3ccc(Cl)cc3)ccc2[nH]1 [Compound #44, 6-(bis(4-chlorophenyl)methyl)-4-(1-(trifluoromethylsulfonyl)piperidin-4-ylamino)quinolin-2(1H)-one]
IC50 [1]: 53 nM | Plasma Concentration (Std Dev) ([5]; 1 mg/kg daily, 2 Hours Post Dose, Day 16, first study): 431 (62) ng/mL | Brain concentration (Std Dev) ([5]; 0.3 mg/kg, Day 2, 2 hours post dose): BLOQ* | Brain concentration (Std Dev) ([5]; 0.3 mg/kg, Day 23, 2 hours post dose): BLOQ** | Brain concentration (Std Dev) ([5]; 1 mg/kg, Day 2, 2 hours post dose): BLOQ* | Brain concentration (Std Dev) ([5]; 3 mg/kg, Day 2, 2 hours post dose): BLOQ* | Stereotypic Counts (MEAN) ([6]; n=8, first #44 row, dose not printed (presumably 3 mg/kg)): 3250 | Stereotypic Counts (MEAN) ([6]; n=8, second #44 row, dose not printed (presumably 10 mg/kg)): 2850 | IC50 [2]: 1.2 nM

O=c1cc(Nc2ccc(C(F)(F)F)cc2)c2cc(C(c3ccc(Cl)cc3)c3ccc(Cl)cc3)ccc2[nH]1 [Compound #59, 6-(bis(4-chlorophenyl)methyl)-4-((4-(trifluoromethyl)phenyl)amino)quinolin-2(1H)-one]
EC50 [4]: > 10000 nM | BRAIN Mean Conc. ± Std. Dev [7]: BLOQ ± NA
